Source: patent US8846638B2, “Macrocyclic nucleoside phosphoramidate derivatives” (Enanta Pharmaceuticals, Inc., priority 2012, dated 2014)

Tests used:
[1] = system: HCV 1a genotype replicon (strain H77, Huh-1a7 cell line); assay: HCV replicon assay, qRT-PCR, genotype 1a (Huh-1a7 cells); format: cell-based; conditions: Hepatitis C virus; Genotype-1a replicon, HCV RNA by qRT-PCR normalized to GAPDH RNA
Text: (§1) HCV replicon cell lines (kindly provided by R. Bartenschlager) isolated from colonies as described by Lohman et al. (Lohman et al. (1999) Science 285: 110-113, expressly incorporated by reference in its entirety) and used for all experiments. One of the HCV replicon cell lines (strain Con1, genotype 1b) has the nucleic acid sequence set forth in EMBL Accession No.: AJ242651, the coding sequence of which is from nucleotides 1801 to 8406. Another replicon cell line (strain H77, genotype 1a) was constructed as described by Yi et. al. (Yi et. al. (2004) Journal of Virology 78(15):7904-15). The coding sequences of the published HCV replicons were synthesized and subsequently assembled in plasmids using standard molecular biology techniques.
(§2) One replicon cell line (“SGR 11-7”) stably expresses HCV replicon RNA, genotype 1b, which consists of (i) the HCV 5′UTR fused to the first 12 amino acids of the capsid protein, (ii) the neomycin phosphotransferase gene (neo), (iii) the IRES from encephalomyocarditis virus (EMCV) and (iv) HCV […] to NS5B genes and the HCV 3′UTR. Another replicon cell line (“Huh-1a7”) described by Yi et. al. (Yi et. al. (2004) Journal of Virology 78(15):7904-15, expressly incorporated by reference in its entirety) stably expresses HCV replicon RNA, genotype 1a, which consists of (i) the HCV 5′UTR fused to the first 12 amino acids of the capsid protein, (ii) the HIV tat protein, (iii) the neomycin phosphotransferase gene (neo), (iv) the IRES from encephalomyocarditis virus (EMCV) and (vi) HCV NS3 to NS5B genes that harbor cell culture adaptive mutations (Q1067R, K1691R, S2204I) and the HCV 3′UTR.
(§3) These cell lines are maintained at 37° C., 5% CO2, 100% relative humidity in DMEM (Cat#11965-084, Invitrogen), with 10% fetal calf serum (“FCS”, Invitrogen), 1% non-essential amino acids (Invitrogen), 1% of Glutamax (Invitrogen), 1% of 10× penicillin/streptomycin (Cat#15140-122, Invitrogen) and Geneticin (Cat#10131-027, Invitrogen) at 0.75 mg/ml or 0.25 mg/ml for 11-7 and Huh-1a7 cells, respectively.
(§4) EC50 values of single agent compounds were determined by HCV RNA detection using quantitative RT-PCR, according to the manufacturer's instructions, with a TAQMAN® One-Step RT-PCR Master Mix Reagents Kit (Cat#AB 4309169, Applied Biosystems) on an ABI Model 7500 thermocycler. EC50 values of combinations are similarly determined by HCV RNA detection using quantitative RT-PCR. The TAQMAN primers to use for detecting and quantifying HCV RNA obtained from Integrated DNA Technologies. HCV RNA is normalized to GAPDH RNA levels in drug-treated cells, which is detected and quantified using the Human GAPDH Endogenous Control Mix (Applied Biosystems, AB 4310884E). Total cellular RNA is purified from 96-well plates using the RNAqueous 96 kit (Ambion, Cat#AM1812). Chemical agent cytotoxicity is evaluated using an MTS assay according to the manufacturer's directions (Promega).
(§5) The compounds of the present invention can be effective against the HCV 1a and 1b genotypes. It should also be understood that the compounds of the present invention can inhibit multiple genotypes of HCV. In one embodiment, compounds of the present invention are active against the 1a, 1b, 2a, 2b, 3a, 4a, and 5a genotypes. […] EC50 ranges against HCV 1a or 1b are as follows: A>1 μM; B 0.1-1 μM; C<0.1 μM.

[2] = system: HCV 1b genotype replicon (strain Con1, SGR 11-7 cell line); assay: HCV replicon assay, qRT-PCR, genotype 1b (SGR 11-7 cells); format: cell-based; conditions: Hepatitis C virus; Genotype-1b replicon, HCV RNA by qRT-PCR normalized to GAPDH RNA
Text: as §1, §2, §3, §4, §5

Compound | EC50 [1] [µM] | EC50 [2] [µM]
C[C@@H]1NP(=O)(Oc2cccc3ccccc23)OCC2OC(n3cnc4c(nc(N)nc43)OCCCCC(F)(F)COC1=O)[C@](C)(O)[C@@H]2O (stereo partly shown) [Example 2] | 0.1 to 1 | 0.1 to 1
C[C@@H]1NP(=O)(Oc2cccc3ccccc23)OCC2OC(n3cnc4c(nc(N)nc43)OCCCCCCCOC1=O)[C@](C)(O)[C@@H]2O (stereo partly shown) [Example 3] | < 0.1 | 0.1 to 1
CC(C)C[C@@H]1NP(=O)(Oc2cccc3ccccc23)OCC2OC(n3cnc4c(nc(N)nc43)OCCCCCCCOC1=O)[C@](C)(O)[C@@H]2O (stereo partly shown) [Example 4] | 0.1 to 1 | > 1
C[C@@H]1NP(=O)(Oc2cccc3ccccc23)OCC2OC(n3cnc4c(nc(N)nc43)OCCCCCOCCCOC1=O)[C@](C)(O)[C@@H]2O (stereo partly shown) [Example 5] | 0.1 to 1 | > 1
C[C@@H]1NP(=O)(Oc2cccc3ccccc23)OCC2OC(n3cnc4c(nc(N)nc43)OCCCCCCOC1=O)[C@](C)(O)[C@@H]2O (stereo partly shown) [Example 7] | < 0.1 | 0.1 to 1
C[C@@H]1NP(=O)(Oc2ccccc2)OCC2OC(n3cnc4c(nc(N)nc43)OCCCCCCCOC1=O)[C@](C)(O)[C@@H]2O (stereo partly shown) [Example 8] | 0.1 to 1 | 0.1 to 1
C[C@@H]1NP(=O)(Oc2ccccc2)OCC2OC(n3cnc4c(nc(N)nc43)OCCCCCCCCOC1=O)[C@](C)(O)[C@@H]2O (stereo partly shown) [Example 9] | 0.1 to 1 | 0.1 to 1
C[C@@H]1NP(=O)(Oc2cccc3ccccc23)OCC2OC(n3cnc4c(nc(N)nc43)OCCC=CCCCOC1=O)[C@](C)(O)[C@@H]2O (stereo partly shown) [Example 10] | 0.1 to 1 | 0.1 to 1
